According to US20190307783A1, “USE OF ANTIVIRALS TO INHIBIT PROTOZOAN VIRUSES” (priority 2016, published 2019):
Like-named read-outs stand apart in the source and are kept apart here.

What was measured:
[1] = tested on: L. guyanensis (LgyLRV1+); assay: Drug-inhibition test: growth of LgyLRV1+ parasites; assay type: cell-based, Leishmania guyanensis; settings: for Population doubling time: untreated ˜7.7 hours; for Effect on L. guyanensis growth, in words: screen at 100 μM or maximum concentration permitted by solubility, 2 days
Experimental: These compounds were examined for their ability to inhibit the growth of LgyLRV1^+ and virus levels by LRV1 capsid flow cytometry.
Most studies were performed using luciferase-expressing transfectants of L. guyanensis (MHOM/BR/78/M4147) described previously [LRV1^+ LgyM4147/SSU:IR2SAT-LUC(b)c3 and LRV^−LgyM4147/pX63HYG/SSU:IR2SAT-LUC(b)c4] (54); these lines are termed LgyLRV1^+ and LgyLRV1^−, respectively. Two strains of LRV1^+L. braziliensis were examined: LEM2780 (MHOM/BO/90/CS) and LEM3874 (MHOM/BO/99/IMT252 no. 3) (12). Parasites were grown in Schneider's media (Sigma Aldrich, St. Louis, Mo., USA) prepared according to the supplier's instructions with pH adjusted to 6.5 and supplemented with 0.76 mM hemin, 2 μg/mL biopterin, 50 U/mL penicillin, 50 μg/mL streptomycin, and 10% (vol/vol) heat-inactivated FBS. Cell concentrations were determined using a Coulter Counter ([…], Indianapolis, Ind., USA).
(§1) Parasites were inoculated at 2×10^5 cells/mL into Schneider's media lacking supplemental adenine.

[2] = tested on: LRV1 (LgyLRV1 capsid levels); assay: microbe, parasite or virus in culture; settings: for Effect on LRV1 (capsid) levels, in words: screen at 100 μM or maximum concentration permitted by solubility
Text: Because LRV1 (like most Totiviridae) is not shed from the cell (33, 34), we developed a flow cytometric assay to measure intracellular LRV1 capsid levels on a per cell basis. To detect LRV1 we used binding to a rabbit anti-LgyLRV1 capsid antiserum (35) followed by detection with Alexa Fluor488-conjugated goat anti-rabbit IgG.
as §1
For capsid flow cytometry, 10^7 cells were fixed at room temperature using 2% (wt/vol) paraformaldehyde (Thermo Fisher Scientific) in PBS for 2 minutes. They were then incubated in blocking buffer [10% (vol/vol) normal goat serum (Vector Laboratories, Burlingame, Calif., USA) and 0.2% TRITON X-100 in PBS] for 30 minutes at room temperature. Anti-LgyLRV1 capsid antibody (35) was added (1:20,000 dilution) and incubated at room temperature for 1 hour. After two washes with PBS, cells were resuspended in 200 μL PBS with Alexa Fluor488-labeled goat anti-rabbit IgG (Alexafluor, Invitrogen; 1:1,000; or Thermo Fisher Scientific; 1:2,000 dilution), and incubated 1 hour at room temperature. After two additional washes with PBS, cells were subjected to flow cytometry, gating for single cells using forward and side scatter and the data analyzed using […] software (BD Bioscience, San Jose, Calif., USA).

[3] = Leishmania guyanensis, 48 h, LgyLRV1+, tested at 100 μM, growth after 2 days, read-out: Percent control (density)
[4] = LgyLRV1+, tested at 100 μM, growth after 2 days
[5] = 48 h, read-out: Percent control (LRV1 capsid)
[6] = LgyLRV1+, tested at 100 μM, 2 days
[7] = LgyLRV1+, tested at 50 μM, growth after 2 days
[8] = LgyLRV1+, tested at 50 μM, 2 days
[9] = Leishmania guyanensis, 48 h, read-out: Percent control (density)

| Structure (SMILES) | activity at 100 µM [1, 3] [%] | Density (cells/mL) [1, 4] [cells/mL] | activity at 100 µM [2, 5] [%] | LRV1 capsid (geometric mean FU) [2, 6] [FU] | further results |
| --- | --- | --- | --- | --- | --- |
| Oc1ncnc2[nH]ncc12 [Allopurinol] | 2 | 4.06E+5 | 34 | 90 | Inhibition of L. guyanensis growth ([1]; highest concentration tested, 48-hour propagation, growth rate (FIG. 18A)): 30%; Inhibition of LRV1 capsid levels ([2]; highest concentration tested, 48-hour propagation (FIG. 18A)): 60% |
| O=C(O)P(=O)(O)O [Foscarnet, Phosphonoformic acid] | 56 | 9.50E+6 | 61 | 162 | Effect on LRV1 (capsid) levels, in words ([2]; 2 days): not significantly affected |
| C[C@@H]1C[C@@H]([C@H](O)CC2CC(=O)NC(=O)C2)C(=O)[C@@H](C)C1 [CHX, cycloheximide] | – | – | – | – | Population doubling time ([1]; L. guyanensis at 10 nM): 11.2 h; Population doubling time ([1]; L. guyanensis at 100 nM): 44.7 h; LRV1 capsid levels under growth-inhibiting agent, in words ([2]; LgyLRV1+, 48-hour propagation in increasing concentrations): unaffected |
| O=c1cn[nH]c(=O)[nH]1 [Compound 6-Azauracil, 6-Azauracil] | 71 | 1.20E+7 | 102 | – | LRV1 capsid (geometric mean FU) [2]: 271 FU |
| CCCNC(=O)[C@H]1O[C@@H]1C(=O)N[C@H](C(=O)N1CCC[C@H]1C(=O)OC)[C@@H](C)CC [CA-074-Me, CA-074 Me] | – | – | – | – | Density (cells/mL) [1, 7]: 1.00E+07 cells/mL; Percent control (density) [1, 7]: 60 Percent control; Effect on L. guyanensis growth, in words [1]: no effects; LRV1 capsid (geometric mean FU) [2, 8]: 83 FU; Percent control (LRV1 capsid) [2, 8]: 31 Percent control; Effect on LRV1 (capsid) levels, in words ([2]; 2 days): only minimal effects |
| Nc1ccn([C@@H]2O[C@H](CO)[C@@H](O)[C@H]2F)c(=O)n1 [2′-Fluoro-2′-deoxycytidine] | 132 | 2.21E+7 | 87 | 230 | – |
| C#C[C@@]1(O)[C@H](O)[C@@H](CO)O[C@H]1n1ccc2c(N)ncnc21 [NITD008, 7-(2-Ethynyl-β-D-ribofuranosyl)-7H-pyrrolo[2,3-d]pyrimidine-4-amine] | – | – | – | – | activity at 1 µM ([1]; Leishmania guyanensis, 48 h, LgyLRV1+, tested at 1 μM, growth after 2 days, read-out: Percent control (density)): 61%; Density (cells/mL) ([1]; LgyLRV1+, tested at 1 μM, growth after 2 days): 1.02E+7 cells/mL; activity at 1 µM [2, 5]: 37%; LRV1 capsid (geometric mean FU) ([2]; LgyLRV1+, tested at 1 μM, 2 days): 98 FU; Effect on LRV1 (capsid) levels, in words ([2]; 2 days): little effect on LRV1 |
| Nc1ncnc2c1ncn2[C@@H]1O[C@H](CO)[C@@H](O)[C@H]1F [2′-Fluoro-2′-deoxyadenosine] | 123 | 2.07E+7 | 97 | 257 | – |
| C[C@@]1(O)[C@H](O)[C@@H](CO)O[C@H]1n1ccc(N)nc1=O [2′C-Methylcytidine, 2′C-Methyl cytidine] | – | 1.73E+7 | – | 162 | Percent control (density) [1, 4]: 103 Percent control; Effect on L. guyanensis growth, in words [1]: little effect; Percent control (LRV1 capsid) [2, 6]: 61 Percent control; Effect on LRV1 (capsid) levels, in words ([2]; 2 days): little effect |
| Cc1cn([C@H]2C[C@H](N=[N+]=[N-])[C@@H](CO)O2)c(=O)[nH]c1=O [Zidovudine] | – | 1.81E+7 | 74 | 196 | activity at 100 µM [1, 9]: 107% |
| CN(C)c1ncnc2c1ncn2[C@@H]1O[C@H](CO)[C@@H](O)[C@H]1O [Chembridge 5790592, N,N-dimethyl adenosine] | 1 | 1.00E+5 | 108 | – | LRV1 capsid (geometric mean FU) [2]: 287 FU |
| C[C@H](Cn1cnc2c(N)ncnc21)OCP(=O)(O)O.O [Tenofovir, Tenofovir monohydrate] | – | 8.90E+6 | – | 206 | Percent control (density) [1, 4]: 53 Percent control; Percent control (LRV1 capsid) [2, 6]: 78 Percent control |
| [N-]=[N+]=N[C@]1(CO)O[C@@H](n2ccc(N)nc2=O)[C@H](O)[C@@H]1O [Compound R-1479, 4′-Azido cytidine] | 73 | 1.23E+7 | 43 | 114 | – |
| Nc1nc2c(ncn2COCCO)c(=O)[nH]1 [Acyclovir] | – | – | – | – | activity at 120 µM ([1]; Leishmania guyanensis, 48 h, LgyLRV1+, tested at 120 μM, growth after 2 days, read-out: Percent control (density)): 51%; Density (cells/mL) ([1]; LgyLRV1+, tested at 120 μM, growth after 2 days): 8.55E+6 cells/mL; activity at 120 µM [2, 5]: 259% |
| O=c1[nH]cnc2c1ncn2[C@H]1CC[C@@H](CO)O1 [Didanosine] | – | 1.80E+7 | 68 | 182 | activity at 100 µM [1, 9]: 107% |
| CCCC(=O)O[C@H]1CN2CC[C@H](O)[C@@H]2[C@@H](O)[C@@H]1O [Celgosivir, 6-O-butanoyl castanospermine] | – | – | – | – | activity at 10 µM ([1]; Leishmania guyanensis, 48 h, LgyLRV1+, tested at 10 μM, growth after 2 days, read-out: Percent control (density)): 65%; Density (cells/mL) ([1]; LgyLRV1+, tested at 10 μM, growth after 2 days): 1.09E+7 cells/mL; activity at 10 µM [2, 5]: 47%; LRV1 capsid (geometric mean FU) ([2]; LgyLRV1+, tested at 10 μM, 2 days): 124 FU |
